# Measurements as given in US8741892B2, “Compounds” (Boehringer Ingelheim International GmbH, priority 2011, dated 2014).
# Target: T1, human recombinant mGluR5 (Homo sapiens, UniProt P41594)
# T1 construct: expressed in transfected cells; host or cells: HEK 293
# Experiment: positive modulation of mGluR5, calcium based FLIPR assay
# Settings: HEK 293 cell line expressing human recombinant mGluR5; EC50 of the modulation from peak Ca fluorescence signal after glutamate at approx. 5% basal stimulation
# Protocol: The positive modulation of mGluR5 is measured in a HEK 293 cell line expressing human recombinant mGluR5 and is detected with calcium based FLIPR assay. The cells are cultured with DMEM supplemented with 10% FCS, 2 μg/mL tetracycline, 100 μg/mL hygromycin and 500 μg/mL geneticin. The cell culture media is exchanged for tetracycline-free cell culture media 3-7 days before the assay. One day before the assay the cell culture medium is exchanged to DMEM without glutamine and phenol red and supplemented with 10% FCS, 100 μg/mL hygromycin and 500 μg/mL geneticin. On the assay day, the medium of the subconfluent cultures is removed and the cells are detached by addition of 2.5 ml EDTA (0.02%) per 175 cm2 culture flask for 1 minute. The cells are resuspend in Ringer solution (140 mM NaCl, 5 mM KCl, 2.5 mM CaCl2, 1.5 mM MgCl2, 5 mM Glucose, 10 mM Hepes; adjusted to pH 7.4 with NaOH), pooled and Ringer solution added to adjust the volume to 50 mL. The cell suspension is centrifuged for […] at 1500 U/min (425 g). The supernatant is removed and the cells washed a second time with 50 ml fresh Ringer solution and centrifuged again as before. The supernatant is again removed and the pellet resuspended in Ringer solution to 1,000,000 cells/ml (1×10^6 cells/mL). The cells are plated onto BD BioCoat Poly-D-Lysine 384 well plates (20.000 cells/well; 20 μl/well). The lid covered plates are then incubated until use at 37° C./10% CO2. For dye loading, 20 μl of Calcium-4 assay kit solution (prepared according to the manufacturer's description in Ringer solution) are added to the cells and the plates are incubated for […] 37° C. and then […] at room temperature.
# Controls, Compound Dilution and Assay Execution:
# Each assay plate contained wells with “high” and “low” controls:
# Low controls 1% DMSO/ringer solution+basal glutamate activation (defined as 100% CTL).
# High controls 10 μM CDPPB+basal glutamate activation (defined as 200% CTL).
# Test compounds are dissolved and diluted in DMSO to 100-fold the desired concentrations. In a second step, the compounds are diluted in Ringer solution such that the compounds are 4-fold more concentrated than the desired final assay concentration. The final DMSO concentration was 1%.
# 20 μl of each compound solution are then transferred to the assay plate and the Ca2+ kinetic is measured to determine any intrinsic compound activity. After 5 mM incubation in the FLIPR device, the second stimulation with 20 μl of glutamate in Ringer solution (glutamate concentration adjusted to approximately 5% basal stimulation of the maximal possible glutamate effect) is added and the kinetic Ca2+ response of the wells was measured for the modulation effect.
# The peak height of the Ca release related fluorescence signal (9-66) is used for the EC50. The EC50 of the modulation is calculated over a nonlinear regression with GraphPad Prism (Table 1).
# T1 sequence (P41594 21-1212): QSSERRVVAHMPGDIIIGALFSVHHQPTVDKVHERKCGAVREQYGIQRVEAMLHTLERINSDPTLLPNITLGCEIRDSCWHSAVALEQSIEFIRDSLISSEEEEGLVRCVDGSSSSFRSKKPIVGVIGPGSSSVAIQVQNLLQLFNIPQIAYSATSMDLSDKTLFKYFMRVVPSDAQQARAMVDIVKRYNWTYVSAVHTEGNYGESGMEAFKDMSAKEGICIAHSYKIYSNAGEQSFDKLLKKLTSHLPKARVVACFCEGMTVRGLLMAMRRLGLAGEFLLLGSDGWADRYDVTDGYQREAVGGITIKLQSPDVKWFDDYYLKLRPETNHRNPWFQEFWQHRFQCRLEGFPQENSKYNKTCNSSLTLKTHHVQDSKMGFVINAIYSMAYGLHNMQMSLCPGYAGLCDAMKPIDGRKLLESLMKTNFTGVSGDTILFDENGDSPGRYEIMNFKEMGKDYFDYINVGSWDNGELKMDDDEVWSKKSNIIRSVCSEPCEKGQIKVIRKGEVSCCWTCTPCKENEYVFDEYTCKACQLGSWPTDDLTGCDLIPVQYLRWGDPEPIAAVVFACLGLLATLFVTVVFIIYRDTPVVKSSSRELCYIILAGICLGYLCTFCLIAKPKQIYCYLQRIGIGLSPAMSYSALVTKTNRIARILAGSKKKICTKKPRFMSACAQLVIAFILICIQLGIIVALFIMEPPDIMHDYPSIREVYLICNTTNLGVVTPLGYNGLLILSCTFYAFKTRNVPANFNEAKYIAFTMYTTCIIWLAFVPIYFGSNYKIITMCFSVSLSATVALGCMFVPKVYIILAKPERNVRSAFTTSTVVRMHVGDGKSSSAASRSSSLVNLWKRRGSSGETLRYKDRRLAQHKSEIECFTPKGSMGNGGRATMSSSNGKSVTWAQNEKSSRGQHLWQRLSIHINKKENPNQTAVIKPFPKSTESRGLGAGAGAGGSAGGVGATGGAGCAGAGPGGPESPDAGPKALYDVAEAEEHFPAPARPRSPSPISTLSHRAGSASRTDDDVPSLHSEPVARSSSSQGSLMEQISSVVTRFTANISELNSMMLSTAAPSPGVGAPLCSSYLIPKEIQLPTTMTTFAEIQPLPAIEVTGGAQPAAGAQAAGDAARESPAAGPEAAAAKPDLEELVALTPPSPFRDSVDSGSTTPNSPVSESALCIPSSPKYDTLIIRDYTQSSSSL
row,EC50,SMILES
1,127 nM,CCc1cc(-c2cccc(Cl)c2)nn1CC(=O)N1CCC(c2ncc(C)o2)CC1 [Example 7.02.108]
2,45 nM,CCc1cc(-c2ccc(F)c(C)c2)nn1CC(=O)N1CC=C(c2ncc(C)s2)CC1 [Example 7.02.135]
3,740 nM,COCc1cc(-c2ccc(F)c(C)c2)nn1CC(=O)N1CCc2nc(C)oc2C1 [Example 7.01.057]
4,8 nM,Cc1cc(-c2cc(-c3ccccc3)n(CC(=O)N3CCc4cccnc4CC3)n2)ccc1F [Example 7.02.131]
5,881 nM,COc1ccc(-c2cc(C(C)C)n(CC(=O)N3CCc4nc(N)sc4CC3)n2)cc1C [Example 7.02.046]
6,34 nM,COCCCc1cc(-c2ccc(F)c(C)c2)nn1CC(=O)N1CCc2nc(C)sc2CC1 [Example 7.02.103]
7,18 nM,CCc1cc(-c2ccc(F)c(C)c2)nn1CC(=O)N1CC=C(c2ncc(C)o2)CC1 [Example 7.02.205]
8,12 nM,Cc1cc(-c2cc(-c3ccccc3)n(CC(=O)N3CCc4nc(N)sc4CC3)n2)ccc1F [Example 7.02.023]
9,2 nM,Cc1nc(N2CCN(C(=O)Cn3nc(-c4ccc(F)c(C)c4)cc3-c3ccccc3)CC2)no1 [Example 7.02.195]
10,617 nM,O=C(Cn1nc(-c2ccccc2)cc1-c1ccccc1)N1CCN(c2cccc(Br)c2)C(=O)C1 [Example 7.01.013]
11,66 nM,Cc1cc(-c2cc(-c3ccccc3)n(CC(=O)N3CCc4cc(-c5ccccc5)nnc4CC3)n2)ccc1F [Example 7.01.082]
12,6 nM,CCCc1cc(-c2ccc(F)c(C)c2)nn1CC(=O)N1CC=C(c2ncc(C)o2)CC1 [Example 7.02.206]
13,111 nM,Cc1nc2c(o1)CN(C(=O)Cn1nc(-c3cc(C)c(F)cn3)cc1-c1ccccc1)C2 [Example 7.02.177]
14,295 nM,COc1cccc(C2CCN(C(=O)Cn3nc(-c4ccc(F)c(C)c4)cc3-c3ccccc3)CC2)c1 [Example 7.02.146]
15,276 nM,CCc1cc(-c2cc(C)c(F)c(C)c2)nn1CC(=O)N1CCc2nc(N)sc2CC1 [Example 7.02.133]
16,110 nM,Cc1cc(-c2cc(-c3ccccc3)n(CC(=O)N3CCC(c4ncccn4)CC3)n2)ccc1F [Example 7.02.016]
17,38 nM,Cc1nc2c(s1)CCN(C(=O)Cn1nc(-c3ccc(C)c(C)n3)cc1-c1ccccc1)CC2 [Example 7.02.122]
18,44 nM,Nc1nc2c(s1)CCN(C(=O)Cn1nc(-c3cccc(Cl)c3)cc1-c1ccccc1)CC2 [Example 7.02.138]
19,47 nM,COc1cnc(C2=CCN(C(=O)Cn3nc(-c4cccc(C)c4)cc3-c3ccccc3)CC2)nc1 [Example 7.02.204]
20,172 nM,CCCc1cc(-c2ccc(F)c(C)n2)nn1CC(=O)N1CCc2nc(C)sc2CC1 [Example 7.02.247]

row,EC50,SMILES
1,51 nM,Cc1cnc(C2CCN(C(=O)Cn3nc(-c4ccc(F)c(C)c4)cc3-c3ccccc3)CC2)s1 [Example 7.02.140]
2,32 nM,Cc1nc2c(s1)CCN(C(=O)Cn1nc(-c3ccc(F)c(C)c3)cc1C)CC2 [Example 7.01.059]
3,68 nM,Cc1cnc(C2CCN(C(=O)Cn3nc(-c4cccc(Cl)c4)cc3-c3ccccc3)CC2)o1 [Example 7.02.144]
4,57 nM,Cc1cc(-c2cc(-c3ccccc3)n(CC(=O)N3CCc4ccsc4CC3)n2)ccc1F [Example 7.02.130]
5,37 nM,Cc1nc2c(s1)CN(C(=O)Cn1nc(-c3ccc(F)cc3)cc1-c1ccc(F)cc1)C2 [Example 7.02.011]
6,6 nM,Cc1nnc(N2CCN(C(=O)Cn3nc(-c4ccc(F)c(C)c4)cc3-c3ccccc3)CC2)o1 [Example 7.02.095]
7,552 nM,COc1cccc(-c2cc(C3CCCCC3)n(CC(=O)N3CCN(c4cccc(OC)c4)C(=O)C3)n2)c1 [Example 7.02.053]
8,53 nM,COCc1cc(-c2ccc(F)c(C)c2)nn1CC(=O)N1CCc2nc(C)sc2CC1 [Example 7.01.055]
9,572 nM,CCc1cc(-c2ccc(F)c(C)c2)nn1CC(=O)N1CCC(c2cccc(OC)c2)CC1 [Example 7.02.147]
10,104 nM,COc1ccc(-c2cc(-c3ccccc3)n(CC(=O)N3CCN(c4noc(C)n4)CC3)n2)cc1C [Example 7.02.232]
11,6 nM,CCCc1cc(-c2ccc(F)c(C)c2)nn1CC(=O)N1CCc2nc(C)sc2CC1 [Example 7.02.067]
12,398 nM,CCc1cc(-c2cc(C)c(F)c(C)c2)nn1CC(=O)N1Cc2nc(C)sc2C1 [Example 7.02.181]
13,48 nM,Cc1nc2c(o1)CN(C(=O)Cn1nc(-c3ccc(OC(F)F)cn3)cc1-c1ccccc1)C2 [Example 7.02.244]
14,65 nM,Cc1nnc(N2CCN(C(=O)Cn3nc(-c4ccc(C)c(F)c4)cc3-c3ccccc3)CC2)o1 [Example 7.02.250]
15,82 nM,Cc1nnc(N2CCN(C(=O)Cn3nc(-c4cccc(C#N)c4)cc3-c3ccccc3)CC2)o1 [Example 7.02.192]
16,34 nM,Cc1cc(-c2cc(-c3ccccc3)n(CC(=O)N3CCc4nc5ccccc5c(C)c4CC3)n2)ccc1F [Example 7.01.084]
17,35 nM,CCc1cc(-c2ccc(C)c(C)c2)nn1CC(=O)N1CCc2nc(C)sc2CC1 [Example 7.02.083]
18,21 nM,Cc1nc2c(s1)CN(C(=O)Cn1nc(-c3ccc(F)c(C)c3)cc1-c1ccccc1)C2 [Example 7.02.020]
19,369 nM,CCc1cc(-c2ccc(C)c(C)c2)nn1CC(=O)N1CCC(c2cc(OC)ncn2)CC1 [Example 7.02.092]
20,370 nM,CCc1cc(-c2ccc(F)c(C)c2)nn1CC(=O)N1CCN(c2nc(C)co2)CC1 [Example 7.02.167]

row,EC50,SMILES
1,390 nM,COc1ccc2c(c1)CN(C(=O)Cn1nc(-c3ccccc3)cc1-c1ccccc1)C2 [Example 7.01.004]
2,36 nM,Cc1nnc(C2CCN(C(=O)Cn3nc(-c4ccc(F)c(C)c4)cc3-c3ccccc3)CC2)o1 [Example 7.02.019]
3,67 nM,COc1cc(-c2cc(-c3ccccc3)n(CC(=O)N3CCC(c4ncc(C)o4)CC3)n2)ccc1F [Example 7.02.152]
4,1800 nM,CCc1cc(-c2ccc(C)c(C)c2)nn1CC(=O)N1CCC(c2ncc(OC)cn2)CC1 [Example 7.02.077]
5,90 nM,Cc1cccc(-c2cc(-c3ccccc3)n(CC(=O)N3CCC(c4nnc(C)o4)CC3)n2)c1 [Example 7.02.197]
6,13 nM,CCCc1cc(-c2ccc(F)c(C)c2)nn1CC(=O)N1CCN(c2noc(C)n2)CC1 [Example 7.02.211]
7,149 nM,CCCc1cc(-c2ccc(F)c(C)c2)nn1CC(=O)N1CCN(c2nc(C)co2)CC1 [Example 7.02.166]
8,21 nM,Cc1cc(-c2cc(CC(C)C)n(CC(=O)N3CCc4nc(N)sc4CC3)n2)ccc1F [Example 7.02.120]
9,796 nM,CC(C)c1ncc2c(n1)CCN(C(=O)Cn1nc(-c3ccccc3)cc1-c1ccccc1)C2 [Example 7.01.029]
10,398 nM,CCc1cc(-c2ccc(F)c(C)c2)nn1CC(=O)N1CCC(c2nnc(COC)o2)CC1 [Example 7.02.228]
11,760 nM,Nc1nc2c(s1)CCN(C(=O)Cn1nc(-c3ccc(F)cn3)cc1-c1ccc(F)cc1)CC2 [Example 7.02.060]
12,1810 nM,COc1cccc2c1CCN(C(=O)Cn1nc(-c3ccccc3)cc1-c1ccccc1)C2 [Example 7.01.015]
13,29 nM,CCCc1cc(-c2ccc(F)c(C)c2)nn1CC(=O)N1CCc2nc(N)sc2CC1 [Example 7.02.033]
14,186 nM,Cc1cc(-c2cc(C(C)C)n(CC(=O)N3CCc4nc(N)sc4CC3)n2)ccc1F [Example 7.02.054]
15,37 nM,CCCc1cc(-c2ccc(F)c(C)c2)nn1CC(=O)N1CCN(c2cccc(OC)c2)C(=O)C1 [Example 7.02.032]
16,735 nM,COc1ccc(-c2cc(C(C)C)n(CC(=O)N3CCc4ccc(OC)cc4CC3)n2)cc1 [Example 7.02.044]
17,65 nM,CCc1cc(-c2cccc(C#N)c2)nn1CC(=O)N1CC=C(c2ncc(C)o2)CC1 [Example 7.02.182]
18,280 nM,COc1ccc(-c2cc(-c3ccccc3)n(CC(=O)N3Cc4nc(C)sc4C3)n2)cc1C [Example 7.02.233]
19,1870 nM,CC1CN(C(=O)Cn2nc(-c3ccccc3)cc2-c2ccccc2)CC(C)N1C(=O)OCc1ccccc1 (stereo not drawn) [Example 7.01.025]
20,92 nM,Cc1cc(-c2cc(-c3ccccc3)n(CC(=O)N3CCC(c4ccccn4)CC3)n2)ccc1F [Example 7.02.013]
